Measured values published in patent US11168095B2, “ASK1 inhibiting agents” (BIOGEN MA INC., priority 2017, dated 2021).
Where two headings read alike, the source gives them in different places.

What was measured:
ASK1/MAP3K5 = ASK1/MAP3K5 (Homo sapiens (Human), UniProt Q99683); test: ASK1/MAP3K5 assay by Reaction Biology Corp.; format: biochemical
Method: ASK1/MAP3K5 was used as the protein kinase and 20 μM of myelin basic protein (MBP) and 10 μM ATP were used as the substrate.

[1] = biological target: ASK1 T838 auto phosphorylation in HEK-293T cells (Homo sapiens (Human), UniProt Q99683); test: ASK1 (AUTO PHOS T838) assay, MSD format; format: cell-based; details: HEK 293T cells transfected with ASK1-V5 full length plasmid, compounds 1 hr at 37° C.; read-out: IC50
Sequence of ASK1 T838 auto phosphorylation in HEK-293T cells (Q99683 whole entry): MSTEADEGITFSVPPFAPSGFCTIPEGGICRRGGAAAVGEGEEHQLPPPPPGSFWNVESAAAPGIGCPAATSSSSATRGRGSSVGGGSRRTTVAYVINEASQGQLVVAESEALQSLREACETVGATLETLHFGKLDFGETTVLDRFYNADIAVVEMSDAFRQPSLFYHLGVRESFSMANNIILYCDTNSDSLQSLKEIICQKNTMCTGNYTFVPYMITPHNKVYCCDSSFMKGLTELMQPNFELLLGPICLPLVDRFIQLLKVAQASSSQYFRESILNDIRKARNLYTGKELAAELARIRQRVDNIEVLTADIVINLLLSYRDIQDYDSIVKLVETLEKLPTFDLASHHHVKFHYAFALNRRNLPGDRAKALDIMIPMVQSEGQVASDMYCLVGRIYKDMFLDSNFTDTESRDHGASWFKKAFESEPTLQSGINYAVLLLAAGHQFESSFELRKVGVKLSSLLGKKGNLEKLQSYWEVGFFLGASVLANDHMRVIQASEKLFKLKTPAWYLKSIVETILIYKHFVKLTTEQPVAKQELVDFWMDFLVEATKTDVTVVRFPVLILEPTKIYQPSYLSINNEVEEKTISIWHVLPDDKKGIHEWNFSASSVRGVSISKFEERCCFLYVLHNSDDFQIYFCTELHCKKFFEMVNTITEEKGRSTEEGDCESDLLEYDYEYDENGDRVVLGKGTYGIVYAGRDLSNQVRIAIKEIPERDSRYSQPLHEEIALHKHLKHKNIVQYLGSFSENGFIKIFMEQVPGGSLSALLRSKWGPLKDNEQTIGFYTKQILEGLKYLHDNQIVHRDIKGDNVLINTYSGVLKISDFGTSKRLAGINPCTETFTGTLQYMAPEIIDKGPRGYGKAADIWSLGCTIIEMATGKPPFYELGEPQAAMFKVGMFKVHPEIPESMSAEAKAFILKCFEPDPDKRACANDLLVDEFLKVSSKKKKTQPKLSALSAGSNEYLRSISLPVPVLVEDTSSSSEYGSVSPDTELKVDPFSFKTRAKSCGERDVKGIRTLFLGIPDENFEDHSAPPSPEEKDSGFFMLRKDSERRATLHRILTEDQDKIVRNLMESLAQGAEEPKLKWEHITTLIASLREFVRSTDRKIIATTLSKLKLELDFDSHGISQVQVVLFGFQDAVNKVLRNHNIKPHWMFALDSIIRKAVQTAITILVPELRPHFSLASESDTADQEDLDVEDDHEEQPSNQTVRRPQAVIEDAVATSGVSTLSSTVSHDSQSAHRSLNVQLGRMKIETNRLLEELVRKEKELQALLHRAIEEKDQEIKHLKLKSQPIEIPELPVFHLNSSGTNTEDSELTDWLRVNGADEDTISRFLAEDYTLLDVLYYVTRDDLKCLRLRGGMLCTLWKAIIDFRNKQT
Method: The plates were incubated at 37° C. overnight. Media on plates was changed to OPTI-MEM, serum free media and cells were transfected with 9 μg of ASK1-V5 tagged full length plasmid using Lipofectamine 2000 (Invitrogen) and the plates were incubated at 37° C. overnight. Cells were trypsinized, counted on Nexcellometer and plated into 96 well tissue culture plates with 100,000 cells/well and 200 μL media. Cells were incubated for 4 hr at 37° C. then ASK1 compounds were added using a HP 300e. Compounds were tested at 20 μM with 3 fold, 10 point dilution points then incubated for 1 hr at 37° C. A lysis buffer (Cell Signaling) was prepared with protease and phosphatase inhibitor and maintained at 4° C. until use. Media from cells was discarded and 120 μL of cold lysis buffer was added to the cells, the plate was shaken 4° C. for 1 hr. Lysate was mixed using Apricot liquid handler; aspirating up and down 16 times at high speed using 50 μL volume. […] Plates were then incubated on a plate shaker overnight at 4° C. Plates were washed 3× with MSD wash buffer and 50 μL of rabbit anti-pASK1 T838 antibody was added to the wells and incubated for 2 hr at room temperature on a plate shaker. Plates were then washed and 50 μL of goat anti-rabbit sulfa-tag (1:500 dilution) was added to wells, and incubated for 1 hr at room temperature on a plate shaker. […] Plates were immediately read on a MSD Instrument Reader where chemoluminecense signal was measured. Data was analyzed using Graph Pad or Genedata, the data was normalized and plotted, % activity versus log of compound concentration. The IC50 values were obtained from a 4 parameter fit.

[2] = 20 μM myelin basic protein (MBP), 10 μM ATP

Sequence of ASK1/MAP3K5 (Q99683 whole entry): as above

| Structure (SMILES) | IC50 (ASK1/MAP3K5; [2]) | IC50 [1] | IC50 (ASK1/MAP3K5) |
| --- | --- | --- | --- |
| C[C@H]1CN(C)CCN1c1ccc2c(c1)OCCCCn1cnnc1-c1cccc(n1)NC2=O [Example 82, (S)-5^4-(2,4-Dimethylpiperazin-1-yl)-1^4H-6-oxa-3-aza-2(2,6)-pyridina-1(3,4)-triazola-5(1,2)-benzenacyclodecaphan-4-one] | < 100 nM | < 1000 nM | – |
| Cn1cc(-c2ccc3c(c2)OCCCCn2cnnc2-c2cccc(n2)NC3=O)cn1 [Example 84, 5^4-(1-Methyl-1H-pyrazol-4-yl)-1^4H-6-oxa-3-aza-2(2,6)-pyridina-1(3,4)-triazola-5(1,2)-benzenacyclodecaphan-4-one] | < 100 nM | < 1000 nM | – |
| CN1CC=C(c2cc3c(cc2F)C(=O)Nc2cccc(n2)-c2nncn2CCCCO3)CC1 [Example 85, 5^5-Fluoro-5^4-(1-methyl-1,2,3,6-tetrahydropyridin-4-yl)-1^4H-6-oxa-3-aza-2(2,6)-pyridina-1(3,4)-triazola-5(1,2)-benzenacyclodecaphan-4-one] | < 100 nM | < 1000 nM | – |
| CN1CCC(c2cc3c(cc2F)C(=O)Nc2cccc(n2)-c2nncn2CCCCO3)CC1 [Example 86, 5^5-Fluoro-5^4-(1-methylpiperidin-4-yl)-1^4H-6-oxa-3-aza-2(2,6)-pyridina-1(3,4)-triazola-5(1,2)-benzenacyclodecaphan-4-one] | < 100 nM | < 1000 nM | – |
| C[C@H]1CCCOc2ccc(F)cc2C(=O)Nc2cccc(n2)-c2nncn21 [Example 99, (S)-5^5-Fluoro-10-methyl-1^4H-6-oxa-3-aza-2(2,6)-pyridina-1(3,4)-triazola-5(1,2)-benzenacyclodecaphan-4-one] | < 100 nM | < 1000 nM | – |
| C[C@@H]1CCCOc2cc(F)c(Br)cc2C(=O)Nc2cccc(n2)-c2nncn21 [Example 102, (R)-5^5-Bromo-5^4-fluoro-10-methyl-1^4H-6-oxa-3-aza-2(2,6)-pyridina-1(3,4)-triazola-5(1,2)-benzenacyclodecaphan-4-one] | 1000 to 10000 nM | > 10000 nM | – |
| C[C@H]1CCCOc2cc(F)c(N3CC4CC(C3)O4)cc2C(=O)Nc2cccc(n2)-c2nncn21 [Example 104, (10S)-5^5-(6-Oxa-3-azabicyclo[3.1.1]heptan-3-yl)-5^4-fluoro-10-methyl-1^4H-6-oxa-3-aza-2(2,6)-pyridina-1(3,4)-triazola-5(1,2)-benzenacyclodecaphan-4-one] | < 100 nM | < 1000 nM | – |
| C[C@H]1CCCOc2cc(F)c(C3=CCN(C)CC3)cc2C(=O)Nc2cccc(n2)-c2nncn21 [Example 106, (S)-5^4-Fluoro-10-methyl-5^5-(1-methyl-1,2,3,6-tetrahydropyridin-4-yl)-1^4H-6-oxa-3-aza-2(2,6)-pyridina-1(3,4)-triazola-5(1,2)-benzenacyclodecaphan-4-one] | < 100 nM | < 1000 nM | – |
| C[C@H]1CCCOc2cc(F)c(C3CCN(C)CC3)cc2C(=O)Nc2cccc(n2)-c2nncn21 [Example 107, (S)-5^4-Fluoro-10-methyl-5^5-(1-methylpiperidin-4-yl)-1^4H-6-oxa-3-aza-2(2,6)-pyridina-1(3,4)-triazola-5(1,2)-benzenacyclodecaphan-4-one] | < 100 nM | < 1000 nM | – |
| C[C@H]1CCCOc2cc(F)c(-c3cncnc3)cc2C(=O)Nc2cccc(n2)-c2nncn21 [Example 110, (S)-5^4-Fluoro-10-methyl-5^5-(pyrimidin-5-yl)-1^4H-6-oxa-3-aza-2(2,6)-pyridina-1(3,4)-triazola-5(1,2)-benzenacyclodecaphan-4-one] | < 100 nM | < 1000 nM | – |
| C[C@H]1CCCOc2cc(F)c(-c3cncc(C(F)(F)F)c3)cc2C(=O)Nc2cccc(n2)-c2nncn21 [Example 111, (S)-5^4-Fluoro-10-methyl-5^5-(5-(trifluoromethyl)pyridin-3-yl)-1^4H-6-oxa-3-aza-2(2,6)-pyridina-1(3,4)-triazola-5(1,2)-benzenacyclodecaphan-4-one] | < 100 nM | < 1000 nM | – |
| Cc1cn(-c2cc3c(cc2F)OCCC[C@H](C)n2cnnc2-c2cccc(n2)NC3=O)cn1 [Example 113, (S)-5^4−Fluoro-10-methyl-5^5-(4-methyl-1H-imidazol-1-yl)-1^4H-6-oxa-3-aza-2(2,6)-pyridina-1(3,4)-triazola-5(1,2)-benzenacyclodecaphan-4-one] | – | < 1000 nM | < 100 nM |
| C[C@H]1CCCOc2cc(F)c(-c3cnn(CCN(C)C)c3)cc2C(=O)Nc2cccc(n2)-c2nncn21 [Example 115, (S)-5^5-(1-(2-(Dimethylamino)ethyl)-1H-pyrazol-4-yl)-5^4-fluoro-10-methyl-1^4H-6-oxa-3-aza-2(2,6)-pyridina-1(3,4)-triazola-5(1,2)-benzenacyclodecaphan-4-one] | < 100 nM | < 1000 nM | – |
| C[C@H]1CCCOc2cc(F)c(OCCN(C)C)cc2C(=O)Nc2cccc(n2)-c2nncn21 [Example 116, (S)-5^5-(2-(Dimethylamino)ethoxy)-5^4-fluoro-10-methyl-1^4H-6-oxa-3-aza-2(2,6)-pyridina-1(3,4)-triazola-5(1,2)-benzenacyclodecaphan-4-one] | – | < 1000 nM | < 100 nM |

The next lines start with results.

| IC50 (ASK1/MAP3K5; [2]) | IC50 [1] | Structure (SMILES) | IC50 (ASK1/MAP3K5) |
| --- | --- | --- | --- |
| < 100 nM | < 1000 nM | O=C1Nc2cccc(n2)-c2nncn2CCCCOc2cc(N3CCOCC3)ccc21 [Example 80, 5^4-Morpholino-1^4H-6-oxa-3-aza-2(2,6)-pyridina-1(3,4)-triazola-5(1,2)-benzenacyclodecaphan-4-one] | – |
| < 100 nM | < 1000 nM | CN1CCN(c2ccc3c(c2)OCCCCn2cnnc2-c2cccc(n2)NC3=O)CC1 [Example 81, 5^4-(4-Methylpiperazin-1-yl)-1^4H-6-oxa-3-aza-2(2,6)-pyridina-1(3,4)-triazola-5(1,2)-benzenacyclodecaphan-4-one] | – |
| < 100 nM | < 1000 nM | C[C@@H]1CN(C)CCN1c1ccc2c(c1)OCCCCn1cnnc1-c1cccc(n1)NC2=O [Example 83, (R)-5^4-(2,4-Dimethylpiperazin-1-yl)-1^4H-6-oxa-3-aza-2(2,6)-pyridina-1(3,4)-triazola-5(1,2)-benzenacyclodecaphan-4-one] | – |
| < 100 nM | < 1000 nM | O=C1Nc2cccc(n2)-c2nncn2CCCCOc2cc(N3CCOCC3)c(F)cc21 [Example 87, 5^5-Fluoro-5^4-morpholino-1^4H-6-oxa-3-aza-2(2,6)-pyridina-1(3,4)-triazola-5(1,2)-benzenacyclodecaphan-4-one] | – |
| < 100 nM | < 1000 nM | COCCNc1cc2c(cc1F)C(=O)Nc1cccc(n1)-c1nncn1CCCCO2 [Example 88, 5^5-Fluoro-5^4-((2-methoxyethyl)amino)-1^4H-6-oxa-3-aza-2(2,6)-pyridina-1(3,4)-triazola-5(1,2)-benzenacyclodecaphan-4-one] | – |
| 100 to 1000 nM | 1000 to 10000 nM | C[C@@H]1CCCOc2ccc(F)cc2C(=O)Nc2cccc(n2)-c2nncn21 [Example 100, (R)-5^5-Fluoro-10-methyl-1^4H-6-oxa-3-aza-2(2,6)-pyridina-1(3,4)-triazola-5(1,2)-benzenacyclodecaphan-4-one] | – |
| < 100 nM | < 1000 nM | C[C@H]1CCCOc2cc(F)c(Br)cc2C(=O)Nc2cccc(n2)-c2nncn21 [Example 101, (S)-5^5-Bromo-5^4-fluoro-10-methyl-1^4H-6-oxa-3-aza-2(2,6)-pyridina-1(3,4)-triazola-5(1,2)-benzenacyclodecaphan-4-one] | – |
| < 100 nM | < 1000 nM | C[C@H]1CCCOc2cc(F)c(N3CCOCC3)cc2C(=O)Nc2cccc(n2)-c2nncn21 [Example 103, (S)-5^4-Fluoro-10-methyl-5^5-morpholino-1^4H-6-oxa-3-aza-2(2,6)-pyridina-1(3,4)-triazola-5(1,2)-benzenacyclodecaphan-4-one] | – |
| < 100 nM | < 1000 nM | C[C@H]1CCCOc2cc(F)c(C3=CCOCC3)cc2C(=O)Nc2cccc(n2)-c2nncn21 [Example 108, (S)-5^5-(3,6-Dihydro-2H-pyran-4-yl)-5^4-fluoro-10-methyl-1^4H-6-oxa-3-aza-2(2,6)-pyridina-1(3,4)-triazola-5(1,2)-benzenacyclodecaphan-4-one] | – |
| < 100 nM | < 1000 nM | C[C@H]1CCCOc2cc(F)c(-c3ccncc3)cc2C(=O)Nc2cccc(n2)-c2nncn21 [Example 112, (S)-5^4-Fluoro-10-methyl-5^5-(pyridin-4-yl)-1^4H-6-oxa-3-aza-2(2,6)-pyridina-1(3,4)-triazola-5(1,2)-benzenacyclodecaphan-4-one] | – |
| < 100 nM | < 1000 nM | C[C@H]1CCCOc2cc(F)c(-c3cnn(C)c3)cc2C(=O)Nc2cccc(n2)-c2nncn21 [Example 114, (S)-5^4-Fluoro-10-methyl-5^5-(1-methyl-1H-pyrazol-4-yl)-1^4H-6-oxa-3-aza-2(2,6)-pyridina-1(3,4)-triazola-5(1,2)-benzenacyclodecaphan-4-one] | – |
